From PubChem BioAssay AID248 (DTP/NCI, 2004)
Values joined by “and” are separate entries in the source; they are usually repeats but may differ in a detail not shown here. Equal entries are not always repeated. Toxic doses and inconclusive results are not listed. Rule as the data show it: active = T/C of 150% or more; inactive = T/C below 125%.

Tested on: L1210 leukemia ip in BDF1 mice, survival T/C
Assay: NCI In Vivo Anticancer Drug Screen. Data for tumor model L1210 Leukemia (intraperitoneal) in B6D2F1 (BDF1) mice
Details: endpoint: mean survival time, higher = longer survival
Summary of the method: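 Tumor was transplanted into mice, which were then dosed with test compound or vehicle alone. Survival was recorded for each group, and the treated figure was expressed relative to the control figure.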

[1] = dose: 100.0 mg/kg/injection, schedule: Q01DX009 (ip), vehicle: saline with Tween-80
[2] = dose: 100.0 mg/kg/injection, schedule: Q04DX003 (ip), vehicle: Klucel (hydroxypropylcellulose) (HPC)
[3] = dose: 200.0 mg/kg/injection, schedule: Q01DX009 (ip), vehicle: saline with Tween-80
[4] = dose: 200.0 mg/kg/injection, schedule: Q04DX003 (ip), vehicle: Klucel (hydroxypropylcellulose) (HPC)
[5] = dose: 400.0 mg/kg/injection, schedule: Q04DX003 (ip), vehicle: Klucel (hydroxypropylcellulose) (HPC)
[6] = dose: 100.0 mg/kg/injection, schedule: Q01DX001 (ip), vehicle: saline
[7] = dose: 100.0 mg/kg/injection, schedule: Q01DX001 (ip), vehicle: carboxymethylcellulose (CMC)
[8] = dose: 200.0 mg/kg/injection, schedule: Q01DX001 (ip), vehicle: carboxymethylcellulose (CMC)
[9] = dose: 400.0 mg/kg/injection, schedule: Q01DX001 (ip), vehicle: carboxymethylcellulose (CMC)
[10] = dose: 50.0 mg/kg/injection, schedule: Q01DX009 (ip), vehicle: Klucel (hydroxypropylcellulose) (HPC)
[11] = dose: 200.0 mg/kg/injection, schedule: Q01DX001 (ip), vehicle: saline
[12] = dose: 400.0 mg/kg/injection, schedule: Q01DX001 (ip), vehicle: saline
[13] = dose: 25.0 mg/kg/injection, schedule: Q04DX003 (ip), vehicle: saline with Tween-80
[14] = dose: 100.0 mg/kg/injection, schedule: Q01DX001 (ip), vehicle: saline with Tween-80
[15] = dose: 200.0 mg/kg/injection, schedule: Q01DX001 (ip), vehicle: saline with Tween-80
[16] = dose: 200.0 mg/kg/injection, schedule: Q04DX002 (ip), vehicle: saline with Tween-80
[17] = dose: 200.0 mg/kg/injection, schedule: Q04DX003 (ip), vehicle: saline with Tween-80
[18] = dose: 400.0 mg/kg/injection, schedule: Q04DX002 (ip), vehicle: saline with Tween-80
[19] = dose: 100.0 mg/kg/injection, schedule: Q04DX003 (ip), vehicle: saline with Tween-80
[20] = dose: 400.0 mg/kg/injection, schedule: Q04DX003 (ip), vehicle: saline with Tween-80
[21] = dose: 100.0 mg/kg/injection, schedule: Q01DX009 (ip), vehicle: Klucel (hydroxypropylcellulose) (HPC)
[22] = dose: 200.0 mg/kg/injection, schedule: Q01DX009 (ip), vehicle: Klucel (hydroxypropylcellulose) (HPC)
[23] = dose: 400.0 mg/kg/injection, schedule: Q01DX009 (ip), vehicle: Klucel (hydroxypropylcellulose) (HPC)

Measured: T/C

O=C(O)CC(SC(CC(=O)O)C(F)(F)C(F)(F)C(F)(F)F)C(F)(F)C(F)(F)C(F)(F)F (stereo not given)
inactive: [1] 94 % of control | [2] 108 % of control | [3] 97 % of control | [4] 97 % of control | dose: 400.0 mg/kg/injection, schedule: Q01DX009 (ip), vehicle: saline with Tween-80 94 % of control | [5] 88 % of control

CCCCCc1cc[n+](CC(=O)c2ccccc2)cc1
inactive: dose: 25.0 mg/kg/injection, schedule: Q04DX003 (ip), vehicle: saline 100 % of control | [6] 93 % of control | dose: 100.0 mg/kg/injection, schedule: Q04DX003 (ip), vehicle: saline 87 % of control

COc1ccc(CNS(=O)(=O)c2ccc(C)cc2)cc1OC
inactive: [7] 96 % of control | [8] 110 % of control | [9] 116 % of control

CCCC1=NNc2n[nH]c(=S)n2N1
inactive: dose: 12.5 mg/kg/injection, schedule: Q01DX009 (ip), vehicle: Klucel (hydroxypropylcellulose) (HPC) 93 % of control | dose: 25.0 mg/kg/injection, schedule: Q01DX009 (ip), vehicle: Klucel (hydroxypropylcellulose) (HPC) 90 % of control | [10] 98 % of control | [2] 100 % of control | [4] 96 % of control

O=C(Nc1ccc(Cl)cc1)Nc1ccc(Cl)c(C(F)(F)F)c1
inactive: [7] 108 % of control | [8] 111 % of control | [9] 111 % of control

O=C(CN1C(=O)CCC1=O)Oc1ccc([N+](=O)[O-])cc1
inactive: [6] 91 % of control | [11] 98 % of control | [12] 102 % of control

COC(=O)c1ccc(O)c(C(=O)OC)c1
inactive: [7] 92 % of control | [8] 97 % of control | [9] 103 % of control

CCOC(=O)c1ccc(NC(=O)Nc2ccc(NC(C)=O)cc2)cc1
inactive: dose: 25.0 mg/kg/injection, schedule: Q01DX009 (ip), vehicle: saline with Tween-80 89 % of control | dose: 25.0 mg/kg/injection, schedule: Q04DX002 (ip), vehicle: saline with Tween-80 86 % of control | [13] 88 % of control | dose: 50.0 mg/kg/injection, schedule: Q01DX001 (ip), vehicle: saline with Tween-80 88 % of control | dose: 50.0 mg/kg/injection, schedule: Q01DX009 (ip), vehicle: saline with Tween-80 89 % of control | dose: 50.0 mg/kg/injection, schedule: Q04DX002 (ip), vehicle: saline with Tween-80 86 % of control and 88 % of control | dose: 50.0 mg/kg/injection, schedule: Q04DX003 (ip), vehicle: saline with Tween-80 86 % of control | [14] 88 % of control | [1] 91 % of control | [15] 93 % of control | [3] 91 % of control | [16] 99 % of control | [17] 90 % of control | [18] 106 % of control

CCSCCOP(=S)(N(CC)CC)N(CC)CC
inactive: dose: 100.0 mg/kg/injection, schedule: Q04DX002 (ip), vehicle: saline with Tween-80 88 % of control | [16] 95 % of control | [18] 104 % of control

OC(CN1CCCCC1)c1cccs1 (stereo not given)
inactive: dose: 6.25 mg/kg/injection, schedule: Q04DX003 (ip), vehicle: saline with Tween-80 94 % of control | dose: 12.5 mg/kg/injection, schedule: Q04DX003 (ip), vehicle: saline with Tween-80 97 % of control | [13] 94 % of control

COc1c(Br)cc(N=Cc2ccc(N(CCCl)CCCl)cc2C)cc1Br
inactive: [7] 98 % of control | [8] 107 % of control | [9] 110 % of control

O=Cc1csc2ncccc12
inactive: [19] 103 % of control | [17] 100 % of control | [20] 105 % of control

COC(=O)C1CC(OS(=O)(=O)c2ccc(C)cc2)CN1C(=O)OCc1ccccc1 (stereo not given)
inactive: [19] 102 % of control | [17] 94 % of control | [20] 92 % of control

C=CCOCC(O)CN(CC)c1ccccc1 (stereo not given)
inactive: [10] 95 % of control | [21] 96 % of control | [2] 100 % of control | [22] 94 % of control and 102 % of control | [4] 102 % of control | [23] 90 % of control | [5] 100 % of control

COc1ccc2c(ccc3nc(CCC(=O)O)n(C)c(=O)c32)c1
inactive: [10] 96 % of control | [21] 96 % of control | [22] 108 % of control

COc1ccc(OC)c(NC(=S)Nc2ccccc2)c1
inactive: [21] 98 % of control | [22] 97 % of control | [23] 92 % of control

O=c1[nH]cnc2c1ncn2C1CCCCC1
inactive: dose: 23.12 mg/kg/injection, schedule: Q01DX Z (ip), vehicle: carboxymethylcellulose (CMC) 100 % of control | dose: 46.25 mg/kg/injection, schedule: Q01DX Z (ip), vehicle: carboxymethylcellulose (CMC) 105 % of control | dose: 46.25 mg/kg/injection, schedule: Q01DX Z (oral), vehicle: carboxymethylcellulose (CMC) 94 % of control | dose: 92.5 mg/kg/injection, schedule: Q01DX Z (ip), vehicle: carboxymethylcellulose (CMC) 96 % of control | dose: 92.5 mg/kg/injection, schedule: Q01DX Z (oral), vehicle: carboxymethylcellulose (CMC) 97 % of control | dose: 185.0 mg/kg/injection, schedule: Q01DX Z (ip), vehicle: carboxymethylcellulose (CMC) 100 % of control | dose: 185.0 mg/kg/injection, schedule: Q01DX Z (oral), vehicle: carboxymethylcellulose (CMC) 100 % of control | dose: 370.0 mg/kg/injection, schedule: Q01DX Z (oral), vehicle: carboxymethylcellulose (CMC) 97 % of control

O=C(N/N=C\c1ccc(-c2ccccc2)cc1)N/N=C/c1ccc(-c2ccccc2)cc1
inactive: dose: 100.0 mg/kg/injection, schedule: Q04DX003 (ip), vehicle: carboxymethylcellulose (CMC) 90 % of control | dose: 200.0 mg/kg/injection, schedule: Q04DX003 (ip), vehicle: carboxymethylcellulose (CMC) 87 % of control

Cc1ccc(O)c(S(=O)(=O)F)c1
inactive: [2] 104 % of control | [4] 102 % of control | [5] 102 % of control

CC(O)CCc1ccc(OC(=O)c2ccccc2)cc1 (stereo not given)
inactive: dose: 50.0 mg/kg/injection, schedule: Q01DX001 (ip), vehicle: saline 101 % of control | [6] 92 % of control | [11] 101 % of control | [12] 92 % of control

O=C(CI)Nc1cccc(NC(=O)C(=O)O)c1
inactive: dose: 20.0 mg/kg/injection, schedule: Q04DX003 (ip), vehicle: Klucel (hydroxypropylcellulose) (HPC) 95 % of control | dose: 40.0 mg/kg/injection, schedule: Q04DX003 (ip), vehicle: Klucel (hydroxypropylcellulose) (HPC) 101 % of control

Nc1cc(NC(c2ccccc2)c2ccccc2)c([N+](=O)[O-])c(N)n1
inactive: [14] 98 % of control | [15] 98 % of control | dose: 400.0 mg/kg/injection, schedule: Q01DX001 (ip), vehicle: saline with Tween-80 93 % of control
